Converted amounts (≈) assume the structure as drawn.
How the values were obtained:
Assay type in all cases: functional
[1] = tested on: Enterococcus faecium; assay: Antibacterial activity against vancomycin-resistant Enterococcus faecium 31/132
[2] = tested on: Staphylococcus aureus; assay: Antibacterial activity against […] Staphylococcus aureus ATCC 13709 SMITH
[3] = tested on: Enterococcus faecium; assay: Antibacterial activity against Enterococcus faecium NLNZ 572
[4] = tested on: Staphylococcus epidermidis; assay: Antibacterial activity against methicillin-resistant Staphylococcus epidermidis ATCC 35984
[5] = tested on: Escherichia coli; assay: Antibacterial activity against TolC-deficient Escherichia coli
[6] = tested on: Enterococcus faecium; assay: Antibacterial activity against Enterococcus faecium ATCC 19434
[7] = tested on: Staphylococcus aureus; assay: Antibacterial activity against Staphylococcus aureus Mu50 ATCC 700699
[8] = tested on: Enterococcus faecium; assay: Antibacterial activity against vancomycin-resistant Enterococcus faecium 32/133
[9] = tested on: Enterococcus faecium; assay: Antibacterial activity against vancomycin-resistant Enterococcus faecium 6A
[10] = tested on: Enterococcus faecium; assay: Antibacterial activity against Enterococcus faecium 575
[11] = tested on: Staphylococcus aureus; assay: Antibacterial activity against linezolid-resistant Staphylococcus aureus O-128
[12] = tested on: Enterococcus faecalis; assay: Antibacterial activity against Enterococcus faecalis ATCC 29212
[13] = tested on: Staphylococcus aureus; assay: Antibacterial activity against Staphylococcus aureus FDA 209P
[14] = tested on: Enterococcus faecium; assay: Antibacterial activity against vancomycin-resistant Enterococcus faecium 134
[15] = tested on: Enterococcus faecium; assay: Antibacterial activity against vancomycin-resistant Enterococcus faecium R1
[16] = tested on: Enterococcus faecium; assay: Antibacterial activity against Enterococcus faecium 45/146
[17] = tested on: Staphylococcus aureus; assay: Antibacterial activity against Staphylococcus aureus ATCC 29213
[18] = tested on: Enterococcus faecium; assay: Antibacterial activity against vancomycin-resistant Enterococcus faecium 03080 DS
[19] = tested on: Staphylococcus epidermidis; assay: Antibacterial activity against Staphylococcus epidermidis ATCC 12228
[20] = tested on: Staphylococcus aureus; assay: Antibacterial activity against methicillin-resistant Staphylococcus aureus DB-00026
[21] = tested on: Escherichia coli; assay: Antibacterial activity against Escherichia coli MG1655; conditions: K-12 substr. MG1655
[22] = tested on: Enterococcus faecalis; assay: Antibacterial activity against Enterococcus faecalis ATCC 19434
[23] = tested on: Enterococcus faecium; assay: Antibacterial activity against Enterococcus faecium ATCC 35667
[24] = tested on: Staphylococcus aureus; assay: Antibacterial activity against PVL positive Staphylococcus aureus
[25] = tested on: Enterococcus faecalis; assay: Antibacterial activity against Enterococcus faecalis ATCC 51299
[26] = tested on: Staphylococcus epidermidis; assay: Antibacterial activity against linezolid-resistant Staphylococcus epidermidis 1089191
[27] = tested on: Staphylococcus aureus; assay: Antibacterial activity against methicillin-resistant Staphylococcus aureus 562
[28] = tested on: Staphylococcus aureus; assay: Antibacterial activity against methicillin-resistant Staphylococcus aureus USA300 BAA-1556
[29] = tested on: Staphylococcus epidermidis; assay: Antibacterial activity against linezolid-resistant Staphylococcus epidermidis 1117174
[30] = tested on: Enterococcus faecalis; assay: Antibacterial activity against linezolid-resistant Enterococcus faecalis ATCC 29212
[31] = tested on: Staphylococcus aureus; assay: Antibacterial activity against methicillin-resistant Staphylococcus aureus 1201984
[32] = tested on: Enterococcus faecium; assay: Antibacterial activity against linezolid-resistant Enterococcus faecium 303

Compound | MIC [1] [mg/L] | MIC [2] [mg/L] | MIC [4] [mg/L] | MIC [5] [mg/L] | MIC [6] [mg/L] | MIC [10] [mg/L] | MIC [11] [mg/L] | MIC [12] [mg/L] | MIC [13] [mg/L] | MIC [14] [mg/L] | MIC [15] [mg/L] | MIC [17] [mg/L] | MIC [18] [mg/L] | MIC [19] [mg/L] | MIC [20] [mg/L] | MIC [21] [mg/L] | MIC [23] [mg/L] | MIC [24] [mg/L] | MIC [25] [mg/L] | MIC [30] [mg/L] | also measured
COC(=O)NC[C@H]1CN(c2ccc(-c3ccc4c(c3)CC3(C(=O)NC(=O)NC3=O)C3CCCN43)c(F)c2)C(=O)O1 (stereo partly drawn) | 16 (≈ 29 µM) | > 32 | 2 (≈ 3.63 µM) | 4 (≈ 7.25 µM) | 16 (≈ 29 µM) | 16 (≈ 29 µM) | 16 (≈ 29 µM) | 8 (≈ 14.5 µM) | 4 (≈ 7.25 µM) | 16 (≈ 29 µM) | 8 (≈ 14.5 µM) | 2 (≈ 3.63 µM) | 8 (≈ 14.5 µM) | 2 (≈ 3.63 µM) | 4 (≈ 7.25 µM) | > 32 | 8 (≈ 14.5 µM) | 2 (≈ 3.63 µM) | 8 (≈ 14.5 µM) | 16 (≈ 29 µM) | MIC [3]: 32 mg/L (≈ 58 µM); MIC [7]: 2 mg/L (≈ 3.63 µM); MIC [8]: 16 mg/L (≈ 29 µM); MIC [9]: 8 mg/L (≈ 14.5 µM); MIC [16]: 8 mg/L (≈ 14.5 µM); MIC [22]: 16 mg/L (≈ 29 µM); MIC [26]: 32 mg/L (≈ 58 µM); MIC [27]: 2 mg/L (≈ 3.63 µM); MIC [28]: 4 mg/L (≈ 7.25 µM); MIC [29]: 32 mg/L (≈ 58 µM); MIC [31]: 2 mg/L (≈ 3.63 µM); MIC [32]: > 32 mg/L
CC(=O)NC[C@H]1CN(c2ccc(-c3ccc4c(c3)CC3(C(=O)NC(=O)NC3=O)C3CCCCN43)c(F)c2)C(=O)O1 (stereo partly drawn) | 2 (≈ 3.64 µM) | 16 (≈ 29.1 µM) | ≤ 1 | 4 (≈ 7.28 µM) | 2 (≈ 3.64 µM) | 2 (≈ 3.64 µM) | 8 (≈ 14.6 µM) | 2 (≈ 3.64 µM) | 2 (≈ 3.64 µM) | 4 (≈ 7.28 µM) | 1 (≈ 1.82 µM) | 2 (≈ 3.64 µM) | 1 (≈ 1.82 µM) | 2 (≈ 3.64 µM) | 2 (≈ 3.64 µM) | > 32 | 1 (≈ 1.82 µM) | 4 (≈ 7.28 µM) | 1 (≈ 1.82 µM) | 4 (≈ 7.28 µM) | MIC [3]: 4 mg/L (≈ 7.28 µM); MIC [7]: ≤ 1 mg/L; MIC [8]: 4 mg/L (≈ 7.28 µM); MIC [9]: 1 mg/L (≈ 1.82 µM); MIC [16]: 2 mg/L (≈ 3.64 µM); MIC [22]: 2 mg/L (≈ 3.64 µM); MIC [26]: > 32 mg/L; MIC [27]: ≤ 1 mg/L; MIC [28]: 2 mg/L (≈ 3.64 µM); MIC [29]: > 32 mg/L; MIC [31]: 2 mg/L (≈ 3.64 µM); MIC [32]: 16 mg/L (≈ 29.1 µM)
CC(=O)NC[C@H]1CN(c2ccc(N3CCOCC3)c(F)c2)C(=O)O1 [LINEZOLID] | 2 (≈ 5.93 µM) | 2 to 32 (≈ 5.93 to 94.9 µM) | 2 (≈ 5.93 µM) | 2 to 8 (≈ 5.93 to 23.7 µM) | 2 to 4 (≈ 5.93 to 11.9 µM) | 2 (≈ 5.93 µM) | 2 to 32 (≈ 5.93 to 94.9 µM) |  | 4 to 32 (≈ 11.9 to 94.9 µM) | 2 (≈ 5.93 µM) | 4 (≈ 11.9 µM) | 2 to 4 (≈ 5.93 to 11.9 µM) | 2 (≈ 5.93 µM) | 2 to 4 (≈ 5.93 to 11.9 µM) | 2 to 4 (≈ 5.93 to 11.9 µM) | > 32 | 0.5 (≈ 1.48 µM) | 0.5 to 4 (≈ 1.48 to 11.9 µM) |  | > 32 | MIC [26]: > 32 mg/L; MIC [27]: 2 to 4 mg/L (≈ 5.93 to 11.9 µM); MIC [28]: 2 to 4 mg/L (≈ 5.93 to 11.9 µM); MIC [29]: > 32 mg/L; MIC [32]: > 32 mg/L
CN[C@H](CC(C)C)C(=O)N[C@H]1C(=O)N[C@@H](CC(N)=O)C(=O)N[C@H]2C(=O)N[C@H]3C(=O)N[C@H](C(=O)N[C@H](C(=O)O)c4cc(O)cc(O)c4-c4cc3ccc4O)[C@H](O)c3ccc(c(Cl)c3)Oc3cc2cc(c3O[C@@H]2O[C@H](CO)[C@@H](O)[C@H](O)[C@H]2O[C@H]2C[C@](C)(N)[C@H](O)[C@H](C)O2)Oc2ccc(cc2Cl)[C@H]1O [VANCOMYCIN] | > 32 |  |  |  |  |  |  | 2 (≈ 1.38 µM) |  |  |  |  |  |  |  |  |  |  | > 32 | 2 (≈ 1.38 µM) | 
CC(=O)NC[C@H]1CN(c2ccc(-c3ccc4c(c3)CC3(C(=O)NC(=O)NC3=O)C3CCCN43)c(F)c2)C(=O)O1 (stereo partly drawn) | 2 to 4 (≈ 3.73 to 7.47 µM) | 16 (≈ 29.9 µM) | ≤ 1 | 2 (≈ 3.73 µM) | 2 (≈ 3.73 µM) | 2 (≈ 3.73 µM) | 16 (≈ 29.9 µM) | 2 (≈ 3.73 µM) | 4 (≈ 7.47 µM) | 4 (≈ 7.47 µM) | 2 (≈ 3.73 µM) | 2 (≈ 3.73 µM) | 2 (≈ 3.73 µM) | 2 (≈ 3.73 µM) | 2 (≈ 3.73 µM) | > 32 | 1 (≈ 1.87 µM) | 2 (≈ 3.73 µM) | 2 (≈ 3.73 µM) | 4 (≈ 7.47 µM) | MIC [3]: 4 mg/L (≈ 7.47 µM); MIC [7]: ≤ 1 mg/L; MIC [8]: 4 mg/L (≈ 7.47 µM); MIC [9]: 1 mg/L (≈ 1.87 µM); MIC [16]: 2 mg/L (≈ 3.73 µM); MIC [22]: 2 mg/L (≈ 3.73 µM); MIC [26]: > 32 mg/L; MIC [27]: 2 mg/L (≈ 3.73 µM); MIC [28]: 4 mg/L (≈ 7.47 µM); MIC [29]: 32 mg/L (≈ 59.8 µM); MIC [31]: 4 mg/L (≈ 7.47 µM); MIC [32]: 16 mg/L (≈ 29.9 µM)
